Measured values from patent US9987280B2, “SIRT1 inhibitors and stem cell rejuvenation” (City of Hope, priority 2013, dated 2018).

Legend:
Burkitt lymphoma = details: single agent; cited from earlier work
Ku70 = experiment: Immunoprecipitation of LSD1 or SIRT1 in KCL-22 cells to detect interaction with Ku70; type: cell-based
Experimental: IP of LSD1 or SIRT1 was carried out in KCL-22 cells to detect their interaction with Ku70, respectively. […] (B) Without and with treatment of 1 mM H2O2 for 1 h and 0.25 μM camptothecin (CPT) for 12 h. Flag was used for IP control.
To explore the mechanisms, Applicants used immunoprecipitation (IP) assay to examine SIRT1, LSD1 and Ku70 interaction.

KCL-22 CML cells = KCL-22 CML cells upon imatinib treatment; cited from earlier work
[1] = 2.5 μM imatinib (STI) for 24 and 48 h

Question: With O=c1[nH]c(S)nc(-c2ccccc2)c1Cc1c(O)ccc2ccccc12 [cambinol, 5-[(2-hydroxy-1-naphthyl)methyl]-2-mercapto-6-phenyl-4(3H)-pyrimidinone] as the molecule, how does the “sensitivity of Burkitt lymphoma” value (Burkitt lymphoma) read?
Answer: Its value is “sensitive”.

Question: With CC[C@@]1(O)C(=O)OCc2c1cc1n(c2=O)Cc2cc3ccccc3nc2-1 [camptothecin] as the molecule, how does the “LSD1/SIRT1 interaction with Ku70” value (Ku70; 0.25 μM camptothecin (CPT) for 12 h) read?
Answer: Its value is “switch of LSD1/SIRT1 interaction with Ku70”.

Question: For OO [hydrogen peroxide], which “LSD1/SIRT1 interaction with Ku70” value (Ku70; 1 mM H2O2 for 1 h) is on record?
Answer: The value was “switch of LSD1/SIRT1 interaction with Ku70”.

Question: With Cc1ccc(NC(=O)c2ccc(CN3CCN(C)CC3)cc2)cc1Nc1nccc(-c2cccnc2)n1 [imatinib] as the molecule, how does the “LSD1 interaction with Ku70” value (Ku70; [1]) read?
Answer: Its value is “reduced”.

Question: And the “SIRT1 interaction with Ku70” value (Ku70; [1])?
Answer: The value was “rapidly enhanced”.

Question: And the “total SIRT1 level” value (Ku70; 48 h drug treatment)?
Answer: Its value is “partially reduced”.

Question: And the “acquisition of T315I BCR-ABL kinase domain mutation” value (KCL-22 CML cells)?
Answer: Its value is “rapidly acquire T315I BCR-ABL kinase domain mutation”.
